Experimental data from patent publication USRE40246E1, “Method for the suppression of viral growth” (John Hopkins University, priority 1994, dated 2008).
Values joined by “and” are separate entries in the source; they are usually repeats but may differ in a detail not shown here. Identical values can stand only once. Like-named read-outs stand apart in the source and are kept apart here.

Tests used:
HSV-18m44-CV4r = assay: Drug sensitivity against ACV resistant strain of HSV-1; assay type: cell-based
HSV-Sm44-ACVg = assay: Drug sensitivity against ACV sensitive strain of HSV-1; assay type: cell-based; conditions: Human alphaherpesvirus 1, read-out: IC50, HSV-Sm44-ACVg
HSV-1 [1] = assay: Drug sensitivity against HSV-1 in Vero cells at different viral passages; assay type: cell-based; conditions: for IC50: Human alphaherpesvirus 1, Vero
Text: Virus which recovered from medium of each passage at IC50 drug concentration were used to infect the subsequent passage of the cells.

HSV-1 [2] = assay: Topical treatment of HSV-1 infected skin of guinea pigs; assay type: in vivo; conditions: guinea pig; for suppression of HSV-1 replication in infected skin: topical five times per day for five days, ABPS 2 and 4 mg/ml, tetramethoxyl NDGA 60 mg/ml, acyclovir 60 mg/ml
Procedure: It is also noted that tetramethoxyl NDGA 4N has been used in an animal system, i.e. to treat HSV infected skin of guinea pigs.
Two male guinea pigs (350 gm body weight) were used in the guinea pig experiment. The back skin of the animal was shaved and equally divided into six patches. Each skin patch was pinched with seven-pin needles and HSV-1 suspension was applied topically to infect each punched area. Twenty-four hours after infection, three agents (ABPS, 2 mg/ml, ABPS 4 mg/ml, tetramethoxyl NDGA, 4N 60 mg/ml and acyclovir 60 mg/ml) were applied to the infected areas five times per day for five days. Picture (FIG. 8) was taken 96 hours following infection.

uninfected CEM-SS cells = assay: Soluble-formazan (XTT) assay, viability of uninfected CEM-SS cells; assay type: cell-based; conditions: Homo sapiens, read-out: IC50, inhibitory or toxic concentration reducing XTT formazan production in uninfected cultures to 50%
[3] = test system: Tat regulated transactivation (Tat-TRS) of HIV-1 LTR promoter; assay: Secreted alkaline phosphatase (SEAP) assay for Tat transactivation in cotransfected COS cells; assay type: cell-based; conditions: for EC50: Human immunodeficiency virus 1, COS, 48 h; for Inhibition of Tat-induced SEAP expression: read at 30 minutes
Text: To screen for inhibitors for Tat regulated transactivation (Tat-TRS), the secreted placental alkaline phosphatase (SEAP) reporter gene is put under the control of HIV-1 LTR promoter in the plasmid pBC12HIV/SEAP. The Tat-coded activity is supplied by a second plasmid construct pBC12/CMV/t2. […] An inhibitor should cause reduction of the SEAP activity which is due to inhibition of the expression of the SEAP mRNA via transactivation of the HIV-1 LTR promoter by Tat protein (Tat-TRS).
For the SEAP assay, test materials were dissolved in 10% DMSO solution made in calcium/magnesium-free PBS. The suspension was centrifuged and the stock solution (10 mg/ml) was filter-sterilized using a Millex®-GS […] filter (Millipore). Appropriate dilutions of the stock solution were prepared in a final DMSO concentration of 0.2% in PBS to obtain the various concentrations of test compounds.
Briefly, a day before DNA transfection, Linbro® 24 flat bottom well of 17-mm diameter plates were pretreated with 0.5 ml sterile solution of 0.1% gelatin. The plates were kept in the hood for 1 hour (all transfection steps were performed in the hood, unless otherwise stated). The gelatin solution was aspirated and the plates were washed with 0.5 ml of IMDM supplemented with 10% fetal calf serum and antibiotics (complete medium). […] DNA transfection was performed at 30-50% cell confluency. The stock solution of the Transfectam reagent, DOGS, was prepared according to the manufacturer's advice at 1 mg/0.380 ml ([…] or 3.4 mM) in 10% (v/v) ethanol in distilled water.
The transfection cocktail consisted of two solutions prepared in sterile tubes: • a) Solution A contained a sterile 150 mM NaCl solution+plasmid DNAs (non selected/selected gene in 2:1 ratio): 0.35 μg of pBC12/HIV/SEAP per well+0.175 μg of pBC12/CMB/t2 (coding for Tat function) per well. • b) Solution B Contained an equal volume of 150 mM NaCl and a volume of Transfectame determined to be 6 times the total amount of DNAS. Solutions A and B were homogenized and immediately mixed.
Ten minutes were allowed for the reaction to proceed. Meanwhile, the growth medium was removed from the subconf luent COS cells and 300 μl (100 μl of complete IMDM+200 μl serum-free medium) were added to each well. The transfection cocktail was dispensed to the wells in equal volume. Control samples containing no DNA were similarly treated and received sterile 150 mM NaCl solution alone. All samples were incubated for 10 and 12 hours after which 700 μl of complete growth medium were added. Test compounds prepared in 5% DMSO/Ca-Mg-free PBS (for non-water-soluble materials) were immediately added at various concentrations to the wells. Drug-untreated control samples received 5% DMSO/PBS solution alone (final DMSO concentration of 0.2%). All samples were then incubated for an additional 48 hours after which 300 μl of each culture supernatant was removed for SEAP analysis.
Briefly, a 250-μl aliquot was removed from COS cell culture supernatants, heated at 65° C. for 5 minutes to selectively inactivate endogenous phosphatase (SEAP is heat stable) and centrifuged in a microfuge for 2 minutes. One hundred μl of 2×SEAP assay buffer (1.0 M diethanolamine, pH 9.8; 0.5 mM MgCl2; 10 mm L-homoarginine) were added to 100-μl aliquot of the samples. The solution was mixed and transferred into a 96-well flat-bottom culture dish (Corning). Twenty μl of pre-warmed substrate solution (120 mM p-nitrophenylphosphate dissolved in 1×SEAP assay buffer) were dispensed with a multipipeter into each well containing the reaction mixture. A405 of the reaction was read at 5-minute intervals at 37° C. for 60 minutes using an EL340i microplate reader (Bio-tek Instruments, Inc.) with 5-second automatic shakings before each reading. The change in absorbance was plotted against time in the standard assay of SEAP induction.

HIV-1 = assay: microbe, parasite or virus in culture; conditions: Human immunodeficiency virus 1, CEM-SS, read-out: EC50, concentration that protects XTT formazan production in infected culture to 50% of uninfected, untreated cells
Procedure: Consequently, creosote bush extract was tested at the National Cancer Institute (NCI) for inhibition of HIV-1 cytopathic effects using the soluble-formazan assay (Weislow et al., JNCI 81: 577-586, 1989, the entire contents of which are hereby incorporated by reference and relied upon). In principle, CEM-SS cells (ATCC, Rockville, Md.) are cocultivated with HIV-producing H9 cells. Viruses infect the host CEM-SS cells, replicate and kill most of the CEM-SS cells in a week. If the drug inhibits HIV production, CEM-SS cells are protected from HIV-induced cell death.
In practice, triplicate samples of CEM-SS cells (5000) were plated in 96-well microtiter plate. Appropriate concentrations of test compounds were added in a final volume of 100 μl calcium/magnesium-free PBS in 5% DMSO. Control samples received the compound medium (PBS) alone. Five minutes later, 500 highly infectious HIV-1 producing II9 cells or normal H9 cells were added to the wells containing the appropriate drug concentrations. The microtiter plates were incubated at 37° C. in 95% O2/5% CO2 for 6 days after which a 50-μl mixture of XTT and N-methylphenazonium methosulfate (PMS) was added. The plates were reincubated for additional 4 hours for the color development (XTT formazan production). The plates were sealed, their contents were mixed by automatic shaking and the OD450 of samples was determined in a microplate reader. […]

HSV-1 [4] = assay: Inhibition of HSV-1 replication in Vero cells; assay type: cell-based; conditions: Human alphaherpesvirus 1, Vero
Vero cells = assay: Inhibition of growth of Vero cells; assay type: cell-based; conditions: Chlorocebus sabaeus
HSV-1 ICP4 = assay: Inhibition of HSV-1 ICP4 transactivation in Vero cells; assay type: cell-based; conditions: Human alphaherpesvirus 1, Vero
[5] = Human alphaherpesvirus 1, read-out: IC50, HSV-18m44-CV4r
[6] = read-out: IC50 against HSV-1 in Vero Cells, Passage 1
[7] = read-out: IC50 against HSV-1 in Vero Cells, Passage 2
[8] = read-out: IC50 against HSV-1 in Vero Cells, Passage 3
[9] = read-out: IC50 against HSV-1 in Vero Cells, Passage 4
[10] = read-out: IC50 against HSV-1 in Vero Cells, Passage 5
[11] = read-out: IC50 against HSV-1 in Vero Cells, Passage 10
[12] = read-out: EC50 (concentration exhibiting 50% inhibition) of Tat regulated HIV transactivation, SEAP expression
[13] = read-out: EC50 of Tat regulated HIV transactivation, SEAP expression
[14] = Mal 4 at 9.5 μm, NDGA at 9.9 μm
[15] = Mal 4 at 31.3 μm, NDGA at 32.6 μm
[16] = Mal 4 at 62.7 μm, NDGA at 65.2 μm

Nc1nc2c(ncn2COCCO)c(=O)[nH]1 [ACV, acyclovir, reference compound]
IC50 (HSV-18m44-CV4r; [5]): 118 µM
IC50 (HSV-Sm44-ACVg): < 6.9 µM
IC50 (HSV-1 [1]; [6]): 7.5 µM
IC50 (HSV-1 [1]; [7]): 37.8 µM
IC50 (HSV-1 [1]; [8]): > 88.8 µM
IC50 (HSV-1 [1]; [9]): 138 µM
IC50 (HSV-1 [1]; [10]): > 220 µM
IC50 (HSV-1 [1]; [11]): 440 µM
IC50 (HSV-1 [1]; read-out: concentration required to inhibit HSV-1, 10th passage): 440 µM
IC50 (HSV-1 [1]; read-out: concentration required to inhibit HSV-1, first passage): 7.5 µM
suppression of HSV-1 replication in infected skin (HSV-1 [2]): effective

COc1ccc(CC(C)C(C)Cc2ccc(O)c(O)c2)cc1O (stereo not shown) [Mal 4, 1-(3,4-dihydroxyphenyl)-4-(3-hydroxy-4-methoxyphenyl)-2,3-dimethylbutane]
IC50 (uninfected CEM-SS cells): 100 µg/mL and 325 µM
EC50 [3, 12]: 8 µg/mL
EC50 [3, 13]: 25 µM
Inhibition of Tat-induced SEAP expression [3, 14]: 13.6%
Inhibition of Tat-induced SEAP expression [3, 15]: 60.4%
Inhibition of Tat-induced SEAP expression [3, 16]: 92%
Inhibition of Tat-induced SEAP expression ([3]; Mal 4 at 95 μm, NDGA at 99 μm): 100%
EC50 (HIV-1): 4.25 µg/mL and 13.4 µM

CC(Cc1ccc(O)c(O)c1)C(C)Cc1ccc(O)c(O)c1 (stereo not shown) [NDGA, 1,4-bis-(3,4-dihydroxyphenyl)-2,3-dimethylbutane]
EC50 [3, 12]: 6 µg/mL
EC50 [3, 13]: 20 µM
Inhibition of Tat-induced SEAP expression [3, 14]: 17.0%
Inhibition of Tat-induced SEAP expression [3, 15]: 73.8%
Inhibition of Tat-induced SEAP expression [3, 16]: 88.1%
Inhibition of Tat-induced SEAP expression ([3]; Mal 4 at 95 μm, NDGA at 99 μm): 92.9%

COc1ccc(C[C@@H](C)[C@@H](C)Cc2ccc(OC)c(OC)c2)cc1OC [Tetramethoxyl NDGA, tetramethoxyl nordihydroguaiaretic acid]
IC50 (HSV-1 [4]): 7.7 µM
inhibition at 0.437 µM (HSV-1 [4]; 0.437 μM): < 0%
inhibition at 0.875 µM (HSV-1 [4]; 0.875 μM): < 0%
inhibition at 1.75 µM (HSV-1 [4]; 1.75 μM): < 0%
inhibition at 3.5 µM (HSV-1 [4]; 3.5 μM): 20%
inhibition at 7 µM (HSV-1 [4]; 7 μM): 40%
inhibition at 14 µM (HSV-1 [4]; 14 μM): 97.5%
IC50 (HSV-18m44-CV4r; [5]): 6.9 µM
IC50 (HSV-18m44-CV4r; Human alphaherpesvirus 1, read-out: IC50 against acyclovir resistant strain (HSV-1 SM44-CV4r)): 6.9 µM
IC50 (HSV-Sm44-ACVg): 6.9 µM
IC50 (Vero cells): 142 µM
inhibition at 4.37 µM (Vero cells; 4.37 μM): 1.27%
inhibition at 8.75 µM (Vero cells; 8.75 μM): 3.18%
inhibition at 17.5 µM (Vero cells; 17.5 μM): 7.64%
inhibition at 35 µM (Vero cells; 35 μM): 7.64%
inhibition at 70 µM (Vero cells; 70 μM): 9.55%
inhibition at 140 µM (Vero cells; 140 μM): 44%
inhibition at 280 µM (Vero cells; 280 μM): 79.6%
IC50 (HSV-1 ICP4): 33 µM
inhibition at 20 µM (HSV-1 ICP4; 20 μM): 8%
inhibition at 30 µM (HSV-1 ICP4; 30 μM): 30%
inhibition at 40 µM (HSV-1 ICP4; 40 μM): 35%
inhibition at 50 µM (HSV-1 ICP4; 50 μM): 52%
inhibition at 60 µM (HSV-1 ICP4; 60 μM): 64%
inhibition at 70 µM (HSV-1 ICP4; 70 μM): 68%
inhibition at 80 µM (HSV-1 ICP4; 80 μM): 78%
IC50 (HSV-1 [1]; read-out: IC50 against HSV-1, essentially the same from first passage to tenth passage, first to tenth passage in vero cells): ~10 µM
IC50 (HSV-1 [1]; [6]): 11.7 µM
IC50 (HSV-1 [1]; [7]): 4.4 µM
IC50 (HSV-1 [1]; [8]): 8.2 µM
IC50 (HSV-1 [1]; [9]): 5.9 µM
IC50 (HSV-1 [1]; [10]): 9.9 µM
IC50 (HSV-1 [1]; [11]): 10 µM
drug resistance of HSV virus toward the drug (HSV-1 [1]; following ten viral passages in vero cells): showed no drug resistance
HSV-1 growth at infected skin areas (HSV-1 [2]; 60 mg/ml, daily topical treatment, five days): eliminated HSV-1 growth completely
suppression of HSV-1 replication in infected skin (HSV-1 [2]): effective
